Values of other authors, collected in patent publication US20240000802A1, “DIFLUPREDNATE FOR REDUCING THE ADVERSE EFFECTS OF OCULAR INFLAMMATION” (SUN PHARMA ADVANCED RESEARCH COMPANY LIMITED, priority 2020, published 2024).

- solubility in aqueous vehicle: practically insoluble
SMILES: CCCC(=O)O[C@]1(C(=O)COC(C)=O)CC[C@H]2[C@@H]3C[C@H](F)C4=CC(=O)C=C[C@]4(C)[C@@]3(F)[C@@H](O)C[C@@]21C [Difluprednate]
